These are literature values, as cited in US20170068777A1, “METHODS OF IDENTIFYING AND F[…] COMPOUNDS THAT MODULATE PHENOTYPE-RELATED TARGETS” (Tufts University, priority 2015, published 2017).

For the data set the following is noted: shown experimentally in the literature.

SMILES strings stand for the structures.

In the case of `CC1(C)[C@@H](O)CC[C@]2(C)[C@H]3C(=O)C=C4[C@@H]5C[C@@](C)(C(=O)O)CC[C@]5(C)CC[C@@]4(C)[C@]3(C)CC[C@@H]12` [Glycyrrhetic acid], the “effect on TG levels” value was “lower TG levels”. In the case of `CC1(C(=O)O)CCC2(C)CCC3(C)C(=CCC4C5(C)CCC(O)C(C)(CO)C5CCC43C)C2C1` (centres unmarked) [Azukisapogenol], the “effect on TG levels” value is on record as “lower TG levels”.
